Measurements published in patent US20140057895A1, “INDAZOLE- AND PYRROLOPYRIDINE-DERIVATIVE AND PHARMACEUTICAL USE THEREOF” (priority 2011, published 2014).
Counter-ions that a name gives are not always drawn.

Target: T1, 5-HT4 receptor (Cavia porcellus, UniProt O70528)
T1 construct: striatum was isolated which was cryopreserved at −80° C. until use; from tissue; host or cells: guinea pig (Slc-Hartley) striatum membranes
Experiment: Test Example 3: Guinea pig 5-HT4 receptor binding assay, [3H]-GR113808, striatum membranes (Table 98)
Conditions: Guinea pig 5-HT4 receptor binding assay, [3H]-GR113808, striatum membranes; mean value of each group; read-out: IC50
Protocol: The guinea pig 5-HT4 receptor binding assay and preparations of receptor membrane preparations herein were carried out according to a method of Grossman et al. [see, British J. Pharmacol., (1993) 109, 618].
Slc-Hartley guinea pigs (body weight 300 g to 400 g) were decapitated to remove brain rapidly, and striatum was isolated which was cryopreserved at −80° C. until use. To the obtained tissues were added fifteen fold of Hepes buffer (50 mM, pH 7.4, 4° C.), and the mixture was homogenized by Teflon (trademark) homogenizer and centrifuged at 48,000×g (4° C.) for 15 minutes. To the resulting precipitate was added Hepes buffer (1 ml) to 30 mg by wet weight of tissues, and the mixture was suspended to give receptor membrane preparations.
To an assay tube were added 0.1 nM [^3H]-GR113808 {chemical name: [1-[2-(methylsulfonylamino) ethyl]-4-piperidinyl]methyl 1-methylindole-3-carboxylate}, receptor membrane preparations, and Hepes buffer (50 mM, pH 7.4, 4° C., 1 ml) containing test compounds or 30 μM serotonin; and the mixture was incubated at 37° C. for 30 minutes. On quenching the reaction, the mixture was rapidly filtered on whatman GF/B filter, which was presoaked in 0.1% polyethyleneimine for 1 hour, by using Brandel cell Harvester, and washed with ice-cooled 50 mM Tris-HCl (pH 7.7, 4 ml) three times. To the filter after filtration was added a liquid scintillator (Ecoscint), and then a radioactivity was determined by a liquid scintillation counter.
50% Inhibition concentrations (IC50) were determined from inhibition rates of test compounds to specific bindings which were obtained by subtracting nonspecific bindings from total binding amounts of [^3H]-GR113808. […]

T1 sequence (O70528 whole entry): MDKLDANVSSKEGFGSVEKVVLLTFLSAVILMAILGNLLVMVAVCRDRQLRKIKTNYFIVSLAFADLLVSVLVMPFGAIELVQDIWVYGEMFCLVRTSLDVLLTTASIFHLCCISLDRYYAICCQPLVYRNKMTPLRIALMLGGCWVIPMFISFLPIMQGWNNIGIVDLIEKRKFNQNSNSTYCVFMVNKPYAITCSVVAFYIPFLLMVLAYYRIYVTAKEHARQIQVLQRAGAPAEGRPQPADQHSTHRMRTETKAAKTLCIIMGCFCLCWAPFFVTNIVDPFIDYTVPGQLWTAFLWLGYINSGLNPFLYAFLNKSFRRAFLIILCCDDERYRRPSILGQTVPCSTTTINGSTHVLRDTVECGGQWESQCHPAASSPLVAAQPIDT

IC50 [nM]	Molecule
93.7	C=C(C)c1nn(-c2noc(C3CCN(C4CCN(C(=O)CO)CC4)CC3)n2)c2c(F)cccc12 [Example 521, 1-(4-{3-[7-fluoro-3-(prop-1-en-2-yl)-1H-indazol-1-yl]-1,2,4-oxadiazol-5-yl}-1,4′-bipiperidin-1'-yl)-2-hydroxyethanone hydrochloride]
179	CC(C)c1nn(-c2noc(C3CCN(C4CCN(C(=O)CO)CC4)CC3)n2)c2c(F)c(O)ccc12 [Example 552, 1-(4-{3-[7-fluoro-6-hydroxy-3-(propan-2-yl)-1H-indazol-1-yl]-1,2,4-oxadiazol-5-yl}-1,4′-bipiperidin-1′-yl)-2-hydroxyethanone]
< 20	CC(=O)N1CCC(N2CCC(c3nc(-n4nc(C(C)C)c5cccc(C)c54)no3)CC2)CC1 [Example 413, 1-(4-{3-[7-methyl-3-(propan-2-yl)-1H-indazol-1-yl]-1,2,4-oxadiazol-5-yl}-1,4′-bipiperidin-1′-yl)ethanone]
173	CC(=O)N1CC(CN2CCC(c3nc(-n4nc(C(C)C)c5ccc(C)cc54)no3)CC2)C1 [Example 471, 1-{3-[(4-{3-[6-methyl-3-(propan-2-yl)-1H-indazol-1-yl]-1,2,4-oxadiazol-5-yl}piperidin-1-yl)methyl]azetidin-1-yl}ethanone trifluoroacetate]
< 20	CC(C)c1nn(-c2noc(C3CCN(CC4CN(S(C)(=O)=O)CCO4)CC3)n2)c2c(F)cccc12 (stereo not drawn) [Example 486, 7-fluoro-1-[5-(1-{[4-(methylsulfonyl)morpholin-2-yl]methyl}piperidin-4-yl)-1,2,4-oxadiazol-3-yl]-3-(propan-2-yl)-1H-indazole]
78.2	COc1cccc2c(C(C)C)nn(-c3noc(C4CCN(C5CCOCC5)CC4)n3)c12 [Example 441, 7-methoxy-3-(propan-2-yl)-1-{5-[1-(tetrahydro-2H-pyran-4-yl)piperidin-4-yl]-1,2,4-oxadiazol-3-yl}-1H-indazole]
100	COc1ccc2c(C(C)C)nn(-c3noc(C4CCN(C5CCN(C(C)=O)CC5)CC4)n3)c2c1F [Example 404, 1-(4-{3-[7-fluoro-6-methoxy-3-(propan-2-yl)-1H-indazol-1-yl]-1,2,4-oxadiazol-5-yl}-1,4′-bipiperidin-1′-yl)ethanone]
< 20	CC(C)c1nn(-c2noc(C3CCN(C4CCOCC4)C3)n2)c2c(F)cccc12 (stereo not drawn) [Example 456, 7-fluoro-3-(propan-2-yl)-1-{5-[1-(tetrahydro-2H-pyran-4-yl)pyrrolidin-3-yl]-1,2,4-oxadiazol-3-yl}-1H-indazole]
21.2	CC(C)c1nn(-c2noc(C3CCN(CC4CN(C(=O)N(C)C)CCO4)CC3)n2)c2c(F)cccc12 (stereo not drawn) [Example 485, 2-[(4-{3-[7-fluoro-3-(propan-2-yl)-1H-indazol-1-yl]-1,2,4-oxadiazol-5-yl}piperidin-1-yl)methyl]-N,N-dimethylmorpholine-4-carboxamide]
< 20	CC(C)c1nn(-c2noc(C3CCN(CCC(=O)c4ccccc4)CC3)n2)c2c(F)cccc12 [Example 396, 3-(4-{3-[7-fluoro-3-(propan-2-yl)-1H-indazol-1-yl]-1,2,4-oxadiazol-5-yl}piperidin-1-yl)-1-phenylpropan-1-one]
< 20	CCc1nn(-c2noc(C3CCN(C4CCC4)CC3)n2)c2c(F)c(F)ccc12 [Example 446, 1-[5-(1-cyclobutylpiperidin-4-yl)-1,.2,4-oxadiazol-3-yl]-3-ethyl-6,7-difluoro-1H-indazole-trifluoroacetate]
< 20	CC(=O)N1CCC(N2CC[C@H](Cc3nc(-n4nc(C(C)C)c5cccc(F)c54)no3)C2)CC1 [Example 495, 1-{4-[(3R)-3-({3-[7-fluoro-3-(propan-2-yl)-1H-indazol-1-yl]-1,2,4-oxadiazol-5-yl}methyl)pyrrolidin-1-yl]piperidin-1-yl}ethanone]
29.5	CC(=O)N1CCC(N2CCC(c3nc(-n4nc(C(C)C)c5c(C)cccc54)no3)CC2)CC1 [Example 408, 1-(4-{3-[4-methyl-3-(propan-2-yl)-1H-indazol-1-yl]-1,2,4-oxadiazol-5-yl}-1,4′-bipiperidin-1′-yl)ethanone]
28.1	COC(=O)N1CCOC(CN2CCC(c3nc(-n4nc(C(C)C)c5cccc(F)c54)no3)CC2)C1 (stereo not drawn) [Example 484, methyl 2-[(4-{3-[7-fluoro-3-(propan-2-yl)-1H-indazol-1-yl]-1,2,4-oxadiazol-5-yl}piperidin-1-yl)methyl]morpholine-4-carboxylate]
26.9	CC(C)c1nn(-c2noc(C3CCN(CCCOc4ccccc4)CC3)n2)c2c(F)cccc12 [Example 395, 7-fluoro-1-{5-[1-(3-phenoxypropyl)piperidin-4-yl]-1,2,4-oxadiazol-3-yl}-3-(propan-2-yl)-1H-indazole]
68.7	CC(=O)N1CCC(N2CCC(c3nc(-n4nc(C(F)(F)F)c5cccc(F)c54)no3)CC2)CC1 [Example 406, 1-(4-{3-[7-fluoro-3-(trifluoromethyl)-1H-indazol-1-yl]-1,2,4-oxadiazol-5-yl}-1,4′-bipiperidin-1′-yl)ethanone]
104	COc1cccc2c(C(C)C)nn(-c3noc(C4CCN(C5CCC5)CC4)n3)c12 [Example 440, 1-[5-(1-cyclobutylpiperidin-4-yl)-1,2,4-oxadiazol-3-yl]-7-methoxy-3-(propan-2-yl)-1H-indazole]
36.1	CC(=O)N1CCC(N2CCC(c3nc(-n4nc(C(C)(C)O)c5cccc(F)c54)no3)CC2)CC1 [Example 403, 1-(4-{3-[7-fluoro-3-(2-hydroxypropan-2-yl)-1H-indazol-1-yl]-1,2,4-oxadiazol-5-yl}-1,4′-bipiperidin-1′-yl)ethanone]
339	Cc1ccc2c(c1)c(C(C)C)nn2-c1noc(C2CCN(C3CCC3)CC2)n1 [Example 427, 1-[5-(1-cyclobutylpiperidin-4-yl)-1,2,4-oxadiazol-3-yl]-5-methyl-3-(propan-2-yl}-1H-indazole]
86.9	COc1cccc2c(C(C)C)nn(-c3noc(C4CCN(C5CCN(C(C)=O)CC5)CC4)n3)c12 [Example 414, 1-(4-{3-[7-methoxy-3-(propan-2-yl)-1H-indazol-1-yl]-1,2,4-oxadiazol-5-yl}-1,4′-bipiperidin-1′-yl)ethanone]
478	CCCCN1CCC(c2cnc(-n3nc(C(C)C)c4cccc(F)c43)[nH]2)CC1 [Example 562, 1-[5-(1-butylpiperidin-4-yl)-1H-imidazol-2-yl]-7-fluoro-3-(propan-2-yl)-1H-indazole]
< 20	CC(C)c1nn(-c2noc(C3CCN(C4CCC(F)(F)CC4)CC3)n2)c2c(F)cccc12 [Example 442, 1-{5-[1-(4,4-difluorocyclohexyl)piperidin-4-yl]-1,2,4-oxadiazol-3-yl}-7-fluoro-3-(propan-2-yl)-1H-indazole]
127	CC(C)c1nn(-c2noc(C3CCN(C4CCN(C(=O)C(=O)O)CC4)CC3)n2)c2c(F)cccc12 [Example 557, potassium (4-{3-[7-fluoro-3-(propan-2-yl)-1H-indazol-1-yl]-1,2,4-oxadiazol-5-yl}-1,4′-bipiperidin-1′-yl)(oxo)acetate]

Molecule	IC50 [nM]
5-methyl-3-(propan-2-yl)-1-{5-[1-(tetrahydro-2H-pyran-4-yl)piperidin-5-yl]-1,2,4-oxadiazol-3-yl}-1H-indazole [Example 428]	248
